This is an account of results in patent US9650339B2, “Inhibitors of histone demethylases” (Gilead Sciences, Inc., priority 2013, dated 2017).

Format in all cases: biochemical
For assay [1], the target named is T1, KDM4C (JMJD2C) (Homo sapiens, UniProt Q9H3R0).
T1 sequence (Q9H3R0 1-349): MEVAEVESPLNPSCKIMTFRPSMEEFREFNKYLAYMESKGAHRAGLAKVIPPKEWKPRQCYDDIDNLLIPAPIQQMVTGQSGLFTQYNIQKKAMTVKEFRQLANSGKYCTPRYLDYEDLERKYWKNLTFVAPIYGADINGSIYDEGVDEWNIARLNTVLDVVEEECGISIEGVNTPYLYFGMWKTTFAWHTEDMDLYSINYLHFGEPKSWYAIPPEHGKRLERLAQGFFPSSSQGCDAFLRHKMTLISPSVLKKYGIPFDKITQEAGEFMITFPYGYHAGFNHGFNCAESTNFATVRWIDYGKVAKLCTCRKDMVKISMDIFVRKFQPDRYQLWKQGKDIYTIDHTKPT
The experiment in a line: Histone lysine demethylase AlphaLISA assay, KDM4C. As to conditions: read-out: KDM4C HDME Inhibition IC50. A digest of the protocol: (§1)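 Enzyme 10 min pre-incubation; + compound (3% DMSO soln) 10 min; + biotin-H3 methyl-Lys peptide, 25 μM L-Asc, 10 μM α-KG, RT. Read: AlphaLISA acceptor beads, then streptavidin donor beads, RT, dark.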
For orientation: Alpha assays give light when donor and acceptor beads are brought close together.

In assay [2] the target is T2, KDM5C (JARID1C) (Homo sapiens, UniProt P41229).
T2 construct: 2-1560; purchased BPS; host or cells: Bac (baculovirus system)
T2 sequence (P41229 2-1560): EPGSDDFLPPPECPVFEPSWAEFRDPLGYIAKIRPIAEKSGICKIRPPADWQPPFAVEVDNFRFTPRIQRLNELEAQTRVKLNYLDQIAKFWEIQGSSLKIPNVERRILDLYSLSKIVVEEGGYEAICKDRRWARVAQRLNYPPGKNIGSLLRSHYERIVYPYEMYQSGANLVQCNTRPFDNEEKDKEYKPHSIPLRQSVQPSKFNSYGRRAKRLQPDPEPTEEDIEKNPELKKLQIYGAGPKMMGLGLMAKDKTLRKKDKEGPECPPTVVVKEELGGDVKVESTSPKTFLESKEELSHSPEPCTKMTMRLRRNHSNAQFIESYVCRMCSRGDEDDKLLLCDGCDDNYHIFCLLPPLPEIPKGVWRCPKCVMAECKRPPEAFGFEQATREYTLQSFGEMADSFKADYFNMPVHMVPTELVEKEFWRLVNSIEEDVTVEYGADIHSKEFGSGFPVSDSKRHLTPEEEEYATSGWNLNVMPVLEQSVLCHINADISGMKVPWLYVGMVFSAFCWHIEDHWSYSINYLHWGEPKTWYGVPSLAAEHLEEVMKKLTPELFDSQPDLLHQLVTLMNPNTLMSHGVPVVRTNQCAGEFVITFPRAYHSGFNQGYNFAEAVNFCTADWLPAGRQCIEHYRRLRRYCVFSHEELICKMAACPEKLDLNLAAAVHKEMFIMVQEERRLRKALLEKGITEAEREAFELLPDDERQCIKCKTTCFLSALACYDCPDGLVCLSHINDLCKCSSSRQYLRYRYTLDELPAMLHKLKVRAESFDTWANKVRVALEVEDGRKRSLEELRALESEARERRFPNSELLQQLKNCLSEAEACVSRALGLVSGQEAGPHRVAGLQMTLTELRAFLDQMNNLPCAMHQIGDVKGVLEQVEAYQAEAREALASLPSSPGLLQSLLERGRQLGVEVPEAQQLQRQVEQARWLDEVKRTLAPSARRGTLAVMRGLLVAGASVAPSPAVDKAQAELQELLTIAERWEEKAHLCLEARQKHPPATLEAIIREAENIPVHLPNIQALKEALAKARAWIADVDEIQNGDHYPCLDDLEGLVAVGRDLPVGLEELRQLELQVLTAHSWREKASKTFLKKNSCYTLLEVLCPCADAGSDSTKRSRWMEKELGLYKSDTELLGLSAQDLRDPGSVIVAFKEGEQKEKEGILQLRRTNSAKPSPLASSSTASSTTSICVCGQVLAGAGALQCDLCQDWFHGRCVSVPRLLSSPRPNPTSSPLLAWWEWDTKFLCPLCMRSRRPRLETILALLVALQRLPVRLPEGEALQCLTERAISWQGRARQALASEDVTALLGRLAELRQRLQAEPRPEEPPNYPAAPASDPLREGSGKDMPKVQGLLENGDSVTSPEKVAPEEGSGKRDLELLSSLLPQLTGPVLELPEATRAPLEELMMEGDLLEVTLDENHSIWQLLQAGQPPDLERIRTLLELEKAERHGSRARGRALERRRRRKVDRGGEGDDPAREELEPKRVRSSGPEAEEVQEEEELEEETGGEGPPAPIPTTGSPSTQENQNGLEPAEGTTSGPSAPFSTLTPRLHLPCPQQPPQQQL
The experiment in a line: Histone lysine demethylase AlphaLISA assay, KDM5C. As to conditions: read-out: KDM5C HDME Inhibition IC50. A digest of the protocol: as §1

Assay [3] concerns the target T3, KDM6B (JMJD3) (Homo sapiens, UniProt O15054).
T3 construct: 1043-end; purchased BPS; host or cells: Bac (baculovirus system)
The experiment in a line: Histone lysine demethylase AlphaLISA assay, KDM6B. As to conditions: read-out: KDM6B HDME Inhibition IC50. The procedure, abridged:
as §1

Assay [4] has as its target T4, KDM7 (PHF8) (Homo sapiens, UniProt Q9UPP1).
T4 construct: KDM7 (PHF8); BRIC; 1-1322; Bac
The experiment in a line: Histone lysine demethylase AlphaLISA assay, KDM7. As to conditions: read-out: PHF8 HDME Inhibition IC50. A digest of the protocol:
as §1

Assay [5] addresses T5, KDM4A (JMJD2A) (Homo sapiens, UniProt O75164).
T5 construct: 1-350; purchased BPS Bioscience, US; host or cells: E. coli
T5 sequence (O75164 1-350): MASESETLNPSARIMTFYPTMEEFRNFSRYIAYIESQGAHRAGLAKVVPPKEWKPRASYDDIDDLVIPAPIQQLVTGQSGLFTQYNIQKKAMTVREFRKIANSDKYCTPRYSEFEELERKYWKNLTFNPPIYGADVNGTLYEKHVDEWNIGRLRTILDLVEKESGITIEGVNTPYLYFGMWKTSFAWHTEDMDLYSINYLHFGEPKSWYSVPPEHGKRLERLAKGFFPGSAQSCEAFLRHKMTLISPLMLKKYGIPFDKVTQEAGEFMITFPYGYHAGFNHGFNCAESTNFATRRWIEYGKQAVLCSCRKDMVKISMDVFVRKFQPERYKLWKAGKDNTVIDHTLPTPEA
The experiment in a line: Histone lysine demethylase AlphaLISA assay, KDM4A. The conditions noted are these: read-out: KDM4A HDME Inhibition IC50. The procedure, abridged:
as §1

The target of assay [6] is T6, KDM5B (PLU-1) (Homo sapiens, UniProt Q9UGL1).
T6 sequence (Q9UGL1 1-809): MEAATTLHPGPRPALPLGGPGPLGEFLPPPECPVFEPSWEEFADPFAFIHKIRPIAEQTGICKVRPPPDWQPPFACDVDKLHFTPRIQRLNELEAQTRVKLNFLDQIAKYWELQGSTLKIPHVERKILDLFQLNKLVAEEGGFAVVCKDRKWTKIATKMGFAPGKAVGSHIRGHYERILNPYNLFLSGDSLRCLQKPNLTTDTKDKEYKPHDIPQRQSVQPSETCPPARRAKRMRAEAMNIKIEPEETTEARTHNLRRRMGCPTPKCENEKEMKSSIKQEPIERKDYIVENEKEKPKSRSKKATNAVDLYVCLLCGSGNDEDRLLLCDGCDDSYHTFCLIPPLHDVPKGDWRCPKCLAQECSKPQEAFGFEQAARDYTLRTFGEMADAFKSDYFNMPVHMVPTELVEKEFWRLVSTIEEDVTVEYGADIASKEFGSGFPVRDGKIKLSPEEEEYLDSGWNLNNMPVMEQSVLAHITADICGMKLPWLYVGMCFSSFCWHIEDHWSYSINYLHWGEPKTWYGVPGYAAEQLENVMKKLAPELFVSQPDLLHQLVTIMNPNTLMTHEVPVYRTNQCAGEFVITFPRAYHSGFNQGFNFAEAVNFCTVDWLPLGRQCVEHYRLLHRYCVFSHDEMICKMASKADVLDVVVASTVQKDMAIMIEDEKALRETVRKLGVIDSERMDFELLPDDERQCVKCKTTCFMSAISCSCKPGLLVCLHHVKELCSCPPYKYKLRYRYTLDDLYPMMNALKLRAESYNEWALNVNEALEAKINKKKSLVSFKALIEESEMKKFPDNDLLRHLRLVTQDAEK
The experiment in a line: Histone lysine demethylase AlphaLISA assay, KDM5B. The conditions noted are these: read-out: KDM5B HDME Inhibition IC50. A digest of the protocol: as §1

T3 sequence (O15054 1043-1682 isoform O15054-1 limits assumed): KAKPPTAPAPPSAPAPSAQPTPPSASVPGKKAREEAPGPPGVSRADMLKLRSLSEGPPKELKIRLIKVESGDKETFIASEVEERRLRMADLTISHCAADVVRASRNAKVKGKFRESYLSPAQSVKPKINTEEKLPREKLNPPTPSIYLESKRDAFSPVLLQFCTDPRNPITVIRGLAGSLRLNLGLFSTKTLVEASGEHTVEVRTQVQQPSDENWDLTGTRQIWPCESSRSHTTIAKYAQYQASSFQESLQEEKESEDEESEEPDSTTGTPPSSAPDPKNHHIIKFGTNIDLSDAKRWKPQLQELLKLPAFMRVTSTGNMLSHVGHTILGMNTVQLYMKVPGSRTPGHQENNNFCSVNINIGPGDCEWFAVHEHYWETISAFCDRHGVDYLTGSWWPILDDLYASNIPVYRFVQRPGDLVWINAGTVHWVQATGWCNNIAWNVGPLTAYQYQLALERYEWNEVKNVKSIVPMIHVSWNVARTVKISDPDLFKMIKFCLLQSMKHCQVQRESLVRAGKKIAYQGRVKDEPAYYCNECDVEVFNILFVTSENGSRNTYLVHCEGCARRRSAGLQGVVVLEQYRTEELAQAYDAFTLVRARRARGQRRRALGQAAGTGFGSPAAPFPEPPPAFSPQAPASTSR
T4 sequence (Q9UPP1 37-440 limits assumed): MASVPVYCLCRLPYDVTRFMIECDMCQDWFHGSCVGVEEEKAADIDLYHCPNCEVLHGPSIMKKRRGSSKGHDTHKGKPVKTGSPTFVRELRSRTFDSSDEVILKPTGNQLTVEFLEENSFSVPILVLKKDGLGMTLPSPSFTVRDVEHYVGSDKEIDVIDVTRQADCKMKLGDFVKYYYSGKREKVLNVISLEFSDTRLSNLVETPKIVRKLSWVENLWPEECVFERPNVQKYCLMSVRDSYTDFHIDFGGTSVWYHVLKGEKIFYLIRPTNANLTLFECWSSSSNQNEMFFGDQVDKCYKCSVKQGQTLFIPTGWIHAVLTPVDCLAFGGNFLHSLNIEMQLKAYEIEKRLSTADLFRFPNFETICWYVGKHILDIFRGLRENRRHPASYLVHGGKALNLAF

Regarding `CN1CCN(C(=O)CNCc2cc(C=O)ccn2)CC1` [Compound 103, 2-({[2-(4-methylpiperazin-1-yl)-2-oxoethyl]-amino}methyl)-pyridine-4-carbaldehyde], the IC50 (usually the concentration that gives 50% inhibition) is above 2500 nM in assay [1]; below 250 nM in assay [2]; above 2500 nM in assay [3]; above 2500 nM in assay [4]; above 2500 nM in assay [5]; 250 to 2500 nM in assay [6].
With `CCN(CCN(C)C)C(=O)CNCc1cc(CNC(=O)C(F)(F)F)ccn1` [Compound 25, N-[(2-{[({[2-(dimethylamino)ethyl]-(ethyl)carbamoyl}-methyl)amino]methyl}-pyrtdin-4-yl)methyl]-2,2,2-trifluoroacetamide], the IC50 in assay [1] was above 2500 nM; in assay [2], 250 to 2500 nM; in assay [3], above 2500 nM; in assay [4] it was above 2500 nM; in assay [5] it was above 2500 nM; in assay [6], 250 to 2500 nM.
As for `CN(C)CCCCCNCc1cc(CN)ccn1` [Compound 8, [2-({[5-(dimethylamino)pentyl]-amino}methyl)pyridin-4-yl]methanamine], the IC50 in assay [1] was above 2500 nM; in assay [2], below 250 nM; in assay [3] it was above 2500 nM; in assay [4] it was above 2500 nM; in assay [5] it was above 2500 nM; in assay [6] it was below 250 nM.
In the case of `O=Cc1ccnc(CNCC(=O)N2CCC(Cc3ccccc3)CC2)c1` [Compound 106, 2-({[2-(4-benzylpiperidin-1-yl)-2-oxoethyl]-amino}methyl)-pyridine-4-carbaldehyde], the IC50 in assay [1] is 250 to 2500 nM; in assay [2] it was above 2500 nM; in assay [3], above 2500 nM; in assay [4], 250 to 2500 nM; in assay [5], 250 to 2500 nM; in assay [6] it was below 250 nM.
`C(=N/C1CC1)/c1ccnc(CNCCCN2CCCC2)c1` [Compound 42, N-{[2-({[3-(pyrrolidin-1-yl)propyl]amino}-methyl)pyridin-4-yl]methylidene}-cyclopropanamine]: the IC50 in assay [1] was above 2500 nM; in assay [2], below 250 nM; in assay [3] it was above 2500 nM; in assay [4] it was above 2500 nM; in assay [5], above 2500 nM; in assay [6] it was below 250 nM.
With `C(=N\C1CC1)/c1ccnc(CNCCCCN2CCC2)c1` [Compound 44, N-{[2-({[4-(azetidin-1-yl)butyl]amino}methyl)-pyridin-4-yl]methylidene}-cyclopropanamine], the IC50 in assay [1] is below 250 nM; in assay [2], below 250 nM; in assay [3] it was 250 to 2500 nM; in assay [4], above 2500 nM; in assay [5], above 2500 nM; in assay [6] it was below 250 nM.
On to `COc1ccccc1CN1CCC(NC(=O)CNCc2cc(CN)ccn2)CC1` [Compound 9, 2-({[4-(aminomethyl)pyridin-2-yl]methyl}amino)-N-{1-[(2-methoxyphenyl)methyl]-piperidin-4-yl}acetamide], for which the IC50 in assay [1] was above 2500 nM; in assay [2], below 250 nM; in assay [3], above 2500 nM; in assay [4], above 2500 nM; in assay [5] it was above 2500 nM; in assay [6], 250 to 2500 nM.
On to `CCN(CC)CCCCN(Cc1cc(C=O)ccn1)C(=O)C(F)(F)F` [Compound 115, N-[4-(diethylamino)butyl]-2,2,2-trifluoro-N-[(4-formylpyridin-2-yl)methyl]acetamide], for which the IC50 was above 2500 nM in assay [1]; below 250 nM in assay [2]; above 2500 nM in assay [3]; 250 to 2500 nM in assay [4]; 250 to 2500 nM in assay [5]; above 2500 nM in assay [6].
`CN(C)C/C=C/CNCc1cc(/C=N/C2CC2)ccn1` [Compound 43, N-{[2-({[(2E)-4-(dimethylamino)but-2-en-1-yl]amino}-methyl)pyridin-4-yl]methylidene}-cyclopropanamine]: the IC50 in assay [1] is below 250 nM; in assay [2], below 250 nM; in assay [3] it was above 2500 nM; in assay [4], 250 to 2500 nM; in assay [5], 250 to 2500 nM; in assay [6], below 250 nM.
In the case of `CN(C)CC1CCC(CNCc2cc(/C=N/C3CC3)ccn2)CC1` (stereo not drawn) [Compound 46, N-[(2-{[({4-[(dimethylamino)-methyl]cyclohexyl}-methyl)amino]-methyl}pyridin-4-yl)methylidene]-cyclopropanamine], the IC50 in assay [1] was above 2500 nM; in assay [2], below 250 nM; in assay [3], above 2500 nM; in assay [4] it was above 2500 nM; in assay [5], 250 to 2500 nM; in assay [6], 250 to 2500 nM.
Take `CON=Cc1ccnc(CNCCCN(C)C)c1` [Compound 64, [3-(dimethylamino)-propyl]({4-[(methoxyimino)-methyl]pyridin-2-yl}methyl)amine]: the IC50 in assay [1] is above 2500 nM; in assay [2], above 2500 nM; in assay [3], above 2500 nM; in assay [4] it was above 2500 nM; in assay [5], 250 to 2500 nM; in assay [6] it was below 250 nM.
Turning to `C#CCN(C)C(=O)CNCc1cc(/C=N/C2CC2)ccn1` [Compound 56, 2-[({4-[N-cyclopropyl-carboximidoyl]-pyridin-2-yl}methyl)amino]-N-methyl-N-(prop-2-yn-1-yl)acetamide], the IC50 in assay [1] is above 2500 nM; in assay [2], 250 to 2500 nM; in assay [3], above 2500 nM; in assay [4] it was 250 to 2500 nM; in assay [5], 250 to 2500 nM; in assay [6], 250 to 2500 nM.
On to `CCN(CCN(C)C)C(=O)CNCc1cc(C=O)ccn1` [Compound 101], for which the IC50 is below 250 nM in assay [1]; below 250 nM in assay [2]; above 2500 nM in assay [3]; 250 to 2500 nM in assay [4]; below 250 nM in assay [5]; below 250 nM in assay [6].
For `CN(C)CCCCNCc1cc(/C=N\C2CC2)ccn1` [Compound 45, N-{[2-({[4-(dimethylamino)butyl]-amino}methyl)-pyridin-4-yl]methylidene}-cyclopropanamine], the IC50 was above 2500 nM in assay [1]; below 250 nM in assay [2]; above 2500 nM in assay [3]; above 2500 nM in assay [4]; above 2500 nM in assay [5]; 250 to 2500 nM in assay [6].
As for `CCN(CC)C(=O)CNCc1cc(/C=N/CCC2CCCCC2)ccn1` [Compound 57, 2-[({4-[[(2-cyclohexylethyl)imino]-methyl]pyridin-2-yl}methyl)amino]-N,N-diethylacetamide], the IC50 in assay [1] is 250 to 2500 nM; in assay [2], below 250 nM; in assay [3], above 2500 nM; in assay [4] it was above 2500 nM; in assay [5], 250 to 2500 nM; in assay [6], below 250 nM.
`CCN(CCN(C)C)C(=O)CNCc1cc(CN)ccn1` [Compound 4, 2-({[4-(aminomethyl)pyridin-2-yl]methyl}amino)-N-[2-(dimethylamino)ethyl]-N-ethylacetamide]: the 50% inhibitory concentration (IC50) in assay [1] was 250 to 2500 nM; in assay [2], below 250 nM; in assay [3], above 2500 nM; in assay [4] it was 250 to 2500 nM; in assay [5] it was 250 to 2500 nM; in assay [6], below 250 nM.
